Data from patent US20240024273A1, “TOPICAL ADMINISTRATION OF 2-(DIETHYLAMINO)ETHYL 2-(4-ISOBUTYLPHENYL)PROPRIONATE FOR TREATMENT OF DISEASES” (TECHFIELDS PHARMA CO., LTD., priority 2020, published 2024).

System: osteoarthritis of the knee
Assay: Second Phase 2 study: WOMAC (VAS) pain subscale score
Assay type: in vivo, human
Description: This is a Phase 2, multicenter, randomized, double blind (within dose), Ibuprofen-placebo controlled, parallel group, dose range finding study to evaluate the efficacy, safety, and PK of 2-(diethylamino)ethyl 2-(4-isobutylphenyl)propionate spray in adult subjects with clinically symptomatic OA of the knee. For subjects with bilateral knee pain, both knees will be treated, but the most symptomatic knee (ie, the most painful knee as measured by the Western Ontario and McMaster University Osteoarthritis Index [WOMAC® 3.1] pain subscale score at Screening) will be designated as the target knee for efficacy analyses. For subjects with unilateral knee pain, only the symptomatic (target) knee will be treated.
The VAS version of the WOMAC will be used for the Primary and Secondary Efficacy Endpoints. Efficacy endpoints will be assessed at Screening and Baseline (Day 1) and at the Week 2, Week 4, Week 8, and Week 12/EOS visits.
The Primary Efficacy Endpoint is the change from Baseline in the WOMAC (VAS) pain subscale score for the target knee at […] of treatment.
4.9.2. Secondary Efficacy Endpoints: • 1. Change from Baseline in the WOMAC (VAS) pain subscale score for the target knee at 2, 8, and 12 weeks of treatment; • 2. Change from Baseline in the WOMAC (VAS) stiffness subscale scores for the target knee and WOMAC (VAS) functional ability subscale scores at 2, 4, 8, and 12 weeks of treatment; • 3. Change from Baseline in the overall WOMAC (VAS) score at 2, 4, 8, and 12 weeks of treatment; • 4. Subject's global assessment of disease status of the target knee at 2, 4, 8, and 12 weeks of treatment; • 5. Subject's global assessment of response to therapy of the target knee at 2, 4, 8, and 12 weeks of treatment; • 6. Amount of rescue medication (acetaminophen) consumed per day for target knee pain.
The Primary Efficacy Endpoint is change from Baseline in the WOMAC (VAS) pain subscale score for the target knee at 4 weeks of treatment, and will be analyzed using an analysis of covariance (ANCOVA). Treatment will be included as a fixed class effect and WOMAC Baseline pain subscale score as covariates. The primary comparisons of interest will be the difference between active Group A (4.375 mg 2-(diethylamino)ethyl 2-(4-isobutylphenyl)propionate/knee) and combined placebo, active Group B (8.75 mg 2-(diethylamino)ethyl 2-(4-isobutylphenyl)propionate/knee) and combined placebo, and active Group C (17.5 mg 2-(diethylamino)ethyl 2-(4-isobutylphenyl)propionate/knee) and combined placebo.

[1] = 17.5 mg/knee BID, Week 12, first 130 subjects
[2] = Week 12, 4.375 mg/knee BID (n = 23), first 130 subjects
[3] = Week 12, 8.75 mg/knee BID (n = 24), first 130 subjects
[4] = Week 12, 17.5 mg/knee BID (n = 19), first 130 subjects
[5] = all subjects, 4.375 mg/knee BID, n = 49, Week 12
[6] = all subjects, 8.75 mg/knee BID, n = 54, Week 12
[7] = all subjects, 17.5 mg/knee BID, n = 52, Week 12
[8] = Week 12, oral, 3 × 400 mg (n = 20), first 130 subjects
[9] = all subjects, Oral Ibuprofen 3 × 400 mg, n = 48, Week 12

Structure (SMILES): CCN(CC)CCOC(=O)C(C)c1ccc(CC(C)C)cc1 (stereo not drawn) [2-(diethylamino)ethyl 2-(4-isobutylphenyl)propionate]
- WOMAC pain, difference from oral ibuprofen (3×400 mg/day) [1]: −14.5 mm
- WOMAC pain, difference from placebo [1]: −15.0 mm
- WOMAC Pain Subscale Score, Day 1, Avg. (Avg. of all patients, blinded, Middle Dose (4 spray/knee, 17.5 mg/knee) Cohort, Day 1): 61.0
- WOMAC Pain Subscale Score, Follow-up, Avg. (Avg. of all patients, blinded, Middle Dose (4 spray/knee, 17.5 mg/knee) Cohort, Follow-up): 38.9
- WOMAC Pain Subscale Score, Week 2, Avg. (Avg. of all patients, blinded, Middle Dose (4 spray/knee, 17.5 mg/knee) Cohort, Week 2): 46.0
- WOMAC Pain Subscale Score, Week 4, Avg. (Avg. of all patients, blinded, Middle Dose (4 spray/knee, 17.5 mg/knee) Cohort, Week 4): 40.5
- WOMAC Pain Subscale Score, Week 8, Avg. (Avg. of all patients, blinded, Middle Dose (4 spray/knee, 17.5 mg/knee) Cohort, Week 8): 35.9
- WOMAC Pain Subscale Score, Week 12, Avg. (Avg. of all patients, blinded, Middle Dose (4 spray/knee, 17.5 mg/knee) Cohort, Week 12): 34.5
- WOMAC Pain Subscale Scores, Baseline (LS Mean) (4.375 mg/knee BID (n = 23), first 130 subjects): 60.0 mm
- WOMAC Pain Subscale Scores, Baseline (LS Mean) (8.75 mg/knee BID (n = 24), first 130 subjects): 61.0 mm
- WOMAC Pain Subscale Scores, Baseline (LS Mean) (17.5 mg/knee BID (n = 19), first 130 subjects): 64.1 mm
- WOMAC Pain Subscale Scores, % of improvement from Oral Ibuprofen [2]: −9.6%
- WOMAC Pain Subscale Scores, % of improvement from Placebo [2]: −8.7%
- WOMAC Pain Subscale Scores, % of improvement from baseline [2]: −41.8%
- WOMAC Pain Subscale Scores, Changes from Baseline (LS Mean) [2]: −25.7 mm
- WOMAC Pain Subscale Scores, Different from oral ibuprofen (LS Mean) [2]: −4.0 mm
- WOMAC Pain Subscale Scores, Different from placebo (LS Mean) [2]: −4.3 mm
- WOMAC Pain Subscale Scores, Week 12 (LS Mean) [2]: 34.3 mm
- WOMAC Pain Subscale Scores, % of improvement from Oral Ibuprofen [3]: −13.2%
- WOMAC Pain Subscale Scores, % of improvement from Placebo [3]: −12.3%
- WOMAC Pain Subscale Scores, % of improvement from baseline [3]: −45.4%
- WOMAC Pain Subscale Scores, Changes from Baseline (LS Mean) [3]: −27.7 mm
- WOMAC Pain Subscale Scores, Different from oral ibuprofen (LS Mean) [3]: −6.1 mm
- WOMAC Pain Subscale Scores, Different from placebo (LS Mean) [3]: −6.6 mm
- WOMAC Pain Subscale Scores, Week 12 (LS Mean) [3]: 33.3 mm
- WOMAC Pain Subscale Scores, % of improvement from Oral Ibuprofen [4]: −24.3%
- WOMAC Pain Subscale Scores, % of improvement from Placebo [4]: −23.4%
- WOMAC Pain Subscale Scores, % of improvement from baseline [4]: −56.5%
- WOMAC Pain Subscale Scores, Changes from Baseline (LS Mean) [4]: −36.2 mm
- WOMAC Pain Subscale Scores, Different from oral ibuprofen (LS Mean) [4]: −14.5 mm
- WOMAC Pain Subscale Scores, Different from placebo (LS Mean) [4]: −15.0 mm
- WOMAC Pain Subscale Scores, Week 12 (LS Mean) [4]: 27.9 mm
- WOMAC Pain Subscale Scores, % of improvement from Oral Ibuprofen [5]: −0.7%
- WOMAC Pain Subscale Scores, % of improvement from Placebo [5]: −5.2%
- WOMAC Pain Subscale Scores, % of improvement from baseline [5]: −41.9%
- WOMAC Pain Subscale Scores, Changes from Baseline (LS Mean) [5]: −25.6 mm
- WOMAC Pain Subscale Scores, Week 12 (LS Mean) [5]: 35.5 mm
- WOMAC Pain Subscale Scores, % of improvement from Oral Ibuprofen [6]: −4.9%
- WOMAC Pain Subscale Scores, % of improvement from Placebo [6]: −9.4%
- WOMAC Pain Subscale Scores, % of improvement from baseline [6]: −46.1%
- WOMAC Pain Subscale Scores, Changes from Baseline (LS Mean) [6]: −28.6 mm
- WOMAC Pain Subscale Scores, Different from oral ibuprofen (LS Mean) [6]: −3.2 mm
- WOMAC Pain Subscale Scores, Different from placebo (LS Mean) [6]: −6.0 mm
- WOMAC Pain Subscale Scores, Week 12 (LS Mean) [6]: 33.4 mm
- WOMAC Pain Subscale Scores, % of improvement from Oral Ibuprofen [7]: −9.8%
- WOMAC Pain Subscale Scores, % of improvement from Placebo [7]: −14.3%
- WOMAC Pain Subscale Scores, % of improvement from baseline [7]: −51.0%
- WOMAC Pain Subscale Scores, Changes from Baseline (LS Mean) [7]: −31.7 mm
- WOMAC Pain Subscale Scores, Different from oral ibuprofen (LS Mean) [7]: −6.3 mm
- WOMAC Pain Subscale Scores, Different from placebo (LS Mean) [7]: −9.1 mm
- WOMAC Pain Subscale Scores, Week 12 (LS Mean) [7]: 30.5 mm

Structure (SMILES): CC(C)Cc1ccc(C(C)C(=O)O)cc1 (stereo not drawn) [Ibuprofen, 2-(4-isobutylphenyl)propionic acid, reference compound]
- WOMAC Pain Subscale Scores, Baseline (LS Mean) (oral, 3 × 400 mg (n = 20), first 130 subjects): 67.0 mm
- WOMAC Pain Subscale Scores, % of improvement from Placebo [8]: 0.9%
- WOMAC Pain Subscale Scores, % of improvement from baseline [8]: −32.2%
- WOMAC Pain Subscale Scores, Changes from Baseline (LS Mean) [8]: −21.6 mm
- WOMAC Pain Subscale Scores, Different from placebo (LS Mean) [8]: −0.5 mm
- WOMAC Pain Subscale Scores, Week 12 (LS Mean) [8]: 45.4 mm
- WOMAC Pain Subscale Scores, % of improvement from Placebo [9]: −4.5%
- WOMAC Pain Subscale Scores, % of improvement from baseline [9]: −41.2%
- WOMAC Pain Subscale Scores, Changes from Baseline (LS Mean) [9]: −25.4 mm
- WOMAC Pain Subscale Scores, Week 12 (LS Mean) [9]: 36.3 mm
- WOMAC Pain, difference vs. Placebo (all subjects, Oral Ibuprofen 3 × 400 mg, n = 48 vs. Placebo n = 48): −2.8 mm
- WOMAC pain, difference from placebo (oral 3×400 mg, first 130 subjects): −0.5 mm
